Results as given in US20220153766A1, “CONDENSED TRICYCLIC COMPOUND USED AS KINASE INHIBITOR” (Hangzhou Innogate Pharma Co., Ltd., priority 2019, published 2022).

Key:
MAP4K1 (HPK1) = MAP4K1 (HPK1) (Homo sapiens, UniProt Q92918); test: MAP4K1 (HPK1) kinase activity inhibition, Caliper mobility shift assay; type: biochemical; conditions: kinase 1.25 nM, ATP 10.1 μM
Summary of the method: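 HPK1 kinase at 1.25 nM final preincubated 10 min at room temperature with compound (5 points, 5-fold dilutions from 500 nM), then reacted 120 min with 10.1 μM ATP and 3 μM substrate peptide No. 25. EDTA stop; mobility-shift conversion read, IC50 from variable-slope four-parameter fit of % inhibition.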

[1] = target: Ba/F3_EGFR del19/T790M/C797S cells (Homo sapiens, UniProt P00533, T790M/C797S, cells depend on it, form not given); test: Ba/F3_EGFR (del19-T790M-C797S) cell proliferation inhibition, CTG, method 1; type: cell-based; conditions: 700 cells/well, 72 h, read-out: Ba/F3_EGFR (del19-T790M-C797S) cell proliferation inhibition (IC50 value) Method 1
Sequence of Ba/F3_EGFR del19/T790M/C797S cells (P00533 with tags, fused parts or gaps DEL746-750/T790M/C797S, form open): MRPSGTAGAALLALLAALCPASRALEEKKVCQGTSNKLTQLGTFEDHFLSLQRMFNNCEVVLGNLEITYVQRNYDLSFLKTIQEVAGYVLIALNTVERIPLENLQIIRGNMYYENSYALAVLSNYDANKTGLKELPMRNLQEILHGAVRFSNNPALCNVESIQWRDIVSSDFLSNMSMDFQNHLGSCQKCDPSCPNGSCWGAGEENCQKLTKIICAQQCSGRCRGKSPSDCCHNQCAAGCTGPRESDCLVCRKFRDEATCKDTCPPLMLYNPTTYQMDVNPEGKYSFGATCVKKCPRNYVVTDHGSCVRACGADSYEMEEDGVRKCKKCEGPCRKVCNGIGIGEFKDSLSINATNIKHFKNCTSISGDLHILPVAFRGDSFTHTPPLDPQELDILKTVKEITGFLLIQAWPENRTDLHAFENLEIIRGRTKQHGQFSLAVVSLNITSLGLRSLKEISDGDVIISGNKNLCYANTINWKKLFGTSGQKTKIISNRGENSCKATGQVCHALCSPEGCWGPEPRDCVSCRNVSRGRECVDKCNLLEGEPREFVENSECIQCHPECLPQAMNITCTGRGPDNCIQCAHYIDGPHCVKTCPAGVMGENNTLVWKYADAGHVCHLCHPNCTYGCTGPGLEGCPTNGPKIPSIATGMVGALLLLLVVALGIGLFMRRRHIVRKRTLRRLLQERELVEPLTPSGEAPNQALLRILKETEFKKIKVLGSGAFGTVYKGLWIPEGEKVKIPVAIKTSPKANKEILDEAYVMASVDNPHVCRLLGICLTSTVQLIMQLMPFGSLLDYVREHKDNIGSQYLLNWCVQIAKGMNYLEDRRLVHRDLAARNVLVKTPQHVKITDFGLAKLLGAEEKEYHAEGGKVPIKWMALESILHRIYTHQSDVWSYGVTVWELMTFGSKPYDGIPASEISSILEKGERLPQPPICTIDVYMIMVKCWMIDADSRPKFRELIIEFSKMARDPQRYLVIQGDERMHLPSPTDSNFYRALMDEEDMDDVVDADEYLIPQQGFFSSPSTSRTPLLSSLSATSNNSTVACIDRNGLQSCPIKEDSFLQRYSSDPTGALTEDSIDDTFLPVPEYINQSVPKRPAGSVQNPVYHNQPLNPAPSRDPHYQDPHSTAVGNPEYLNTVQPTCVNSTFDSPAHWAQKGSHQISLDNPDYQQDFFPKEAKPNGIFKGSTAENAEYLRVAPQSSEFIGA

Sequence of MAP4K1 (HPK1) (Q92918 whole entry): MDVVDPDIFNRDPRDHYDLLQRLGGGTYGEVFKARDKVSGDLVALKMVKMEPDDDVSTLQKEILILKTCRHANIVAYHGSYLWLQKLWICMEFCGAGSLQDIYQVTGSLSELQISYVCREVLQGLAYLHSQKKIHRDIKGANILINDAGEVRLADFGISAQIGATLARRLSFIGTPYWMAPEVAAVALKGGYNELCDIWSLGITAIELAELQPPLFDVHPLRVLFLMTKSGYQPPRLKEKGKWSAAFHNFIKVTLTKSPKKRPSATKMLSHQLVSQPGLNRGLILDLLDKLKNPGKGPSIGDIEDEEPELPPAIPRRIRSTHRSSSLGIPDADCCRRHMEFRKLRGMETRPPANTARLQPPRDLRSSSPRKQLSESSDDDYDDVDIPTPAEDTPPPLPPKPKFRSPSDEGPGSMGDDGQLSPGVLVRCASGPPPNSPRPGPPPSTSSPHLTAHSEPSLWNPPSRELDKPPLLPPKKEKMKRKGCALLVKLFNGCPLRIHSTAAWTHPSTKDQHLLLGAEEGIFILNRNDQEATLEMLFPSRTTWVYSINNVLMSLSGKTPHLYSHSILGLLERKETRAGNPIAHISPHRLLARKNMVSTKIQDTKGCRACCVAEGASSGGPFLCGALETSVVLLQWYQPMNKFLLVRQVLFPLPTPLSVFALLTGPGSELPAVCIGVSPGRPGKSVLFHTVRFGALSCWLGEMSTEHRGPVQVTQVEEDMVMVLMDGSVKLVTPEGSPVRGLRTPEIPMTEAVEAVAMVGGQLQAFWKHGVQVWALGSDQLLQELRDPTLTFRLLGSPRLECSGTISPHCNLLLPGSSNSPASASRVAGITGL

IC50 (MAP4K1 (HPK1)): ≤ 1 nM | GI50 [1]: < 20 nM
SMILES: Cc1cc(Nc2ncc(Cl)c(Nc3ccccc3P(C)(C)=O)n2)cc2c1N1CCN(C3CCN(C)CC3)C[C@@H]1CO2 [Compound 27R]
